Assays:
[1] = system: pBMC from patients with CLL; experiment: Cytotoxicity of several antineoplastic agents on pBMC (LC90), fixed volume flow cytometry; type: cell-based, human; conditions: in µg/mL
From the text: The necessary peripheral blood (PB) samples from adult patients diagnosed with chronic lymphatic leukaemia (CLL) were collected into heparin during routine diagnosis prior to administration of chemotherapy.

[2] = system: patient samples (pBMC from CLL patients); experiment: Cytotoxicity assay of example 1 (new method), chemosensitivity index Ci; type: cell-based, human
Experimental: (2) A more complex standardization is the calculation of an index. In case of the chemosensitivity testing it is not a single value that has to be standardized. The chemosensitivity towards a drug is tested with several concentrations of the drug in parallel in a cell culture assay. […] This method was adopted for the present invention from the analysis of DiSC assays (Staib et al., British Journal of Haematology, 2005, 128, 783-791). The Chemosensitivity Index Ci was designed as a prognostic index for ex vivo chemosensitivity assays. Assay results were expressed as percent tumor cell survival (% TCS). The dose-response curve as a function of the dose-response relationship may be mathematically described by a […] regression model (FIG. 4). The dose-response curve was defined as CS=c1*e^conc*c2 % with cell survival (CS), drug concentration (conc) and the constants c1 and c2. c1 represented the y-axis distance and c2 the slope of the curve. The area under the curve (AUC) as an exact measure for the total dose response relation was defined as AUC=−e^c1/c2, on condition that c2 is less than 0, otherwise AUC is infinite. The chemosensitivity index, Ci, was set up as Ci=e^−AUC*c with a domain between 0 and 1. The drug-specific constant c was used for adjusting the Ci-value of 0.5 as the cut-off point between resistance and sensitivity. The constant c was defined as
with AUCcut-off as the smallest AUC value among all clinical non-responding patients of the training data set. Obviously, all cytotoxic agents given for treatment were ineffective in these patients. The cut-off Ci value must be adjusted to 0.5 for prognosis of the effect of the drug on a patient in vivo when the drug is tested on said patient's cells in vitro using the method of the present invention. Ci values of 0-0.5 indicated resistance and values above 0.5 predicted sensitivity against the drug tested.
Peripheral blood mononuclear cells (pBMC) from a patient with chronic lymphatic leukaemia were isolated from the PB samples as described before (Staib, P. et al., Br. J. Haematol., 128(6):783-91 (2005)), resuspended in RPMI 1640 medium (Biochrom, Berlin, Germany) containing 20 vol. % fetal calf serum (FCS; Biochrom, Berlin, Germany) and added into the precoated 96-well plate with a final cell concentration of 10,000 cells/well and a volume of 100 μl. The plates were then agitated for 15 min in order to solubilize the dried fludarabine phosphate. Subsequently, the plates were incubated for 96 h (37° C., 5% CO2, humidified atmosphere). Thereafter, 50 μl of an 11 μM propidium iodide (PI)-solution in 0.9% aqueous NaCl solution (NaCl 0.9%) (Invitrogen, Leiden, Netherlands) were added and incubated for 15 min at room temperature. PI is a standard flow cytometric viability probe and is used to distinguish viable from nonviable cells. Viable cells with intact membranes exclude PI, whereas the membranes of dead and damaged cells are permeable to PI. PI only stains cells with compromised cell membrane, whilst live cells which have intact membranes are not stained by PI.
The chemosensitivity index Ci based on the DiSC assay as described in Staib, P. et al., Br. J. Haematol., 128(6):783-91 (2005) is known to have a very high accuracy of prediction (98%) for the clinical outcome of a particular chemotherapy (Staib, P. et al., Br. J. Haematol., 128(6):783-91 (2005)). In order to evaluate the accuracy of the cytotoxicity assay as described in example 1 (“new method”), the Ci determination was performed for assay results of patient samples analyzed with the traditional DiSC assay and—in parallel—with the new assay method described in example 1. In total, 22 patient samples were analyzed. Fludara® was used in both assays. The cytotoxicity assay of example 1 was performed as described therein, and the DiSC assay was performed as described in Staib, P. et al., Br. J. Haematol., 128(6):783-91 (2005).

Nc1nc(F)nc2c1ncn2[C@@H]1O[C@H](COP(=O)(O)O)[C@@H](O)[C@@H]1O [Fludarabine phosphate, 2-Fluoro-9-(5-O-phosphono-β-D-arabinofuranosyl)-9H-purin-6-amine]
LC90 ([1]; pBMC of CLL patient #1, ex vivo): 69.69 | LC90 ([1]; pBMC of CLL patient #2, ex vivo): 11.74 | LC90 ([1]; pBMC of CLL patient #3, ex vivo): 0.09 | LC90 ([1]; pBMC of CLL patient #4, ex vivo): 26.00 | LC90 ([1]; pBMC of CLL patient #5, ex vivo): 0.46 | LC90 ([1]; pBMC of CLL patient #6, ex vivo): 18.17 | LC90 ([1]; pBMC of CLL patient #7, ex vivo): 13.25 | LC90 ([1]; pBMC of CLL patient #8, ex vivo): 15.02 | LC90 ([1]; pBMC of CLL patient #9, ex vivo): 0.94 | LC90 ([1]; pBMC of CLL patient #10, ex vivo): 0.01 | LC90 ([1]; pBMC of CLL patient #11, ex vivo): 2.15 | LC90 ([1]; pBMC of CLL patient #12, ex vivo): 0.33 | LC90 ([1]; pBMC of CLL patient #13, ex vivo): 0.82 | LC90 ([1]; pBMC of CLL patient #14, ex vivo): 0.86 | LC90 ([1]; pBMC of CLL patient #15, ex vivo): 0.58 | LC90 ([1]; pBMC of CLL patient #16, ex vivo): 0.22 | LC90 ([1]; pBMC of CLL patient #17, ex vivo): 0.55 | LC90 ([1]; pBMC of CLL patient #18, ex vivo): 0.55 | LC90 ([1]; pBMC of CLL patient #19, ex vivo): 0.50 | LC90 ([1]; pBMC of CLL patient #20, ex vivo): 0.00 | LC90 ([1]; pBMC of CLL patient #21, ex vivo): 0.11 | LC90 ([1]; pBMC of CLL patient #22, ex vivo): 81.92 | LC90 ([1]; pBMC of CLL patient #23, ex vivo): 0.01 | LC90 ([1]; pBMC of CLL patient #24, ex vivo): 23.76 | LC90 ([1]; pBMC of CLL patient #25, ex vivo): 35.21 | patients DiSC-Assay resistant / New method sensitive ([2]; of 22 patients): 0 | patients DiSC-Assay sensitive / New method resistant ([2]; of 22 patients): 0 | Ci (New Method) ([2]; patient #1): 0.99 | prediction (New Method) ([2]; patient #1): sensitive (values above 0.5 predicted sensitivity against the drug tested) | Ci (New Method) ([2]; patient #2): 0.94 | prediction (New Method) ([2]; patient #2): sensitive (values above 0.5 predicted sensitivity against the drug tested) | Ci (New Method) ([2]; patient #3): 0.99 | prediction (New Method) ([2]; patient #3): sensitive (values above 0.5 predicted sensitivity against the drug tested) | Ci (New Method) ([2]; patient #4): 0.89 | prediction (New Method) ([2]; patient #4): sensitive (values above 0.5 predicted sensitivity against the drug tested) | Ci (New Method) ([2]; patient #5): 0.93 | prediction (New Method) ([2]; patient #5): sensitive (values above 0.5 predicted sensitivity against the drug tested) | Ci (New Method) ([2]; patient #6): 0.79 | prediction (New Method) ([2]; patient #6): sensitive (values above 0.5 predicted sensitivity against the drug tested) | Ci (New Method) ([2]; patient #7): 0.74 | prediction (New Method) ([2]; patient #7): sensitive (values above 0.5 predicted sensitivity against the drug tested) | Ci (New Method) ([2]; patient #8): 0.83 | prediction (New Method) ([2]; patient #8): sensitive (values above 0.5 predicted sensitivity against the drug tested) | Ci (New Method) ([2]; patient #9): 0.65 | prediction (New Method) ([2]; patient #9): sensitive (values above 0.5 predicted sensitivity against the drug tested) | Ci (New Method) ([2]; patient #10): 0.74 | prediction (New Method) ([2]; patient #10): sensitive (values above 0.5 predicted sensitivity against the drug tested) | Ci (New Method) ([2]; patient #11): 0.60 | prediction (New Method) ([2]; patient #11): sensitive (values above 0.5 predicted sensitivity against the drug tested) | Ci (New Method) ([2]; patient #12): 0.81 | prediction (New Method) ([2]; patient #12): sensitive (values above 0.5 predicted sensitivity against the drug tested) | Ci (New Method) ([2]; patient #13): 0.65 | prediction (New Method) ([2]; patient #13): sensitive (values above 0.5 predicted sensitivity against the drug tested) | Ci (New Method) ([2]; patient #14): 0.63 | prediction (New Method) ([2]; patient #14): sensitive (values above 0.5 predicted sensitivity against the drug tested) | Ci (New Method) ([2]; patient #15): 0.71 | prediction (New Method) ([2]; patient #15): sensitive (values above 0.5 predicted sensitivity against the drug tested) | Ci (New Method) ([2]; patient #16): 0.35 | prediction (New Method) ([2]; patient #16): resistant (Ci values of 0-0.5 indicated resistance) | Ci (New Method) ([2]; patient #17): 0.41 | prediction (New Method) ([2]; patient #17): resistant (Ci values of 0-0.5 indicated resistance) | Ci (New Method) ([2]; patient #18): 0.35 | prediction (New Method) ([2]; patient #18): resistant (Ci values of 0-0.5 indicated resistance) | Ci (New Method) ([2]; patient #19): 0.24 | prediction (New Method) ([2]; patient #19): resistant (Ci values of 0-0.5 indicated resistance) | Ci (New Method) ([2]; patient #20): 0.36 | prediction (New Method) ([2]; patient #20): resistant (Ci values of 0-0.5 indicated resistance) | Ci (New Method) ([2]; patient #21): 0.41 | prediction (New Method) ([2]; patient #21): resistant (Ci values of 0-0.5 indicated resistance) | Ci (New Method) ([2]; patient #22): 0.24 | prediction (New Method) ([2]; patient #22): resistant (Ci values of 0-0.5 indicated resistance)
